Measured values published in patent US4329473A, “Oxoalkanoic acid derivatives as inhibitors of angiotensin converting enzyme” (priority 1980, dated 1982).
Where a SMILES comes first, the peptide text is derived from it.

Biological target: T1, porcine plasma angiotensin-converting enzyme (Sus scrofa, UniProt F1RRW5)
T1 construct: procine plasma angiotensin-converting enzyme; from tissue; host or cells: porcine plasma
T1 sequence (F1RRW5 34-1309): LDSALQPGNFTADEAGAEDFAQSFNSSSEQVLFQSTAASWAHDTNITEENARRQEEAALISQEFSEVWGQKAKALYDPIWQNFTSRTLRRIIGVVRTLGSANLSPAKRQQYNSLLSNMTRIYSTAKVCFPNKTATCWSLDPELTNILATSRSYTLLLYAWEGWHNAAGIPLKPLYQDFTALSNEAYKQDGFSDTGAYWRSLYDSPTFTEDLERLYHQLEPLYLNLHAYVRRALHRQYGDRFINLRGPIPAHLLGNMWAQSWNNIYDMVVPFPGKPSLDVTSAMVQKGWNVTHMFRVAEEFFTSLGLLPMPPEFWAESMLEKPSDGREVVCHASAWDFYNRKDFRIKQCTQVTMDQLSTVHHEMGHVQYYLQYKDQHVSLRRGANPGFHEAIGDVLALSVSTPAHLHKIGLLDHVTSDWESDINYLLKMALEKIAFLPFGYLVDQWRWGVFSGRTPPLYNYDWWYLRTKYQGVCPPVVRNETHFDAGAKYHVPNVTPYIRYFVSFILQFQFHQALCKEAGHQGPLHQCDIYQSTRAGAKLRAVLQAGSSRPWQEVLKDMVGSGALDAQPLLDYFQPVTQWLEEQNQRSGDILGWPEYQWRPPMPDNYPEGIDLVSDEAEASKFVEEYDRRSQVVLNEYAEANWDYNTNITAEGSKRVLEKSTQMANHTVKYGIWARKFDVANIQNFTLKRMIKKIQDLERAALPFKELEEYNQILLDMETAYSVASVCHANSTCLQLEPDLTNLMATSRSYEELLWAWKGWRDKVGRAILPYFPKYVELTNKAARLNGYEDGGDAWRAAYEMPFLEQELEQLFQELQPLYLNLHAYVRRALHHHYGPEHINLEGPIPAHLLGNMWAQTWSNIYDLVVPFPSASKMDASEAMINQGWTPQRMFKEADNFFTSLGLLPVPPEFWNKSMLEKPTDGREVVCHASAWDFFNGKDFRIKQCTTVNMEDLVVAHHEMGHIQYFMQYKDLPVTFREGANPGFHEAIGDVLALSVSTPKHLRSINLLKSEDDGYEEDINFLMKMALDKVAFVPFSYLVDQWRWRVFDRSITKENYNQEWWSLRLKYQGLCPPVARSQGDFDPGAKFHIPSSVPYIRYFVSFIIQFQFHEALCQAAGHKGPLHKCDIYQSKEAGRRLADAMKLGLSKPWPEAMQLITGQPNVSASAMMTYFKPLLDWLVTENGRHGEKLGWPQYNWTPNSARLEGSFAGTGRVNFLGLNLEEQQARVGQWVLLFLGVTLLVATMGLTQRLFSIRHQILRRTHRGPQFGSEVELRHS
Assay: Angiotensin Converting Enzyme Inhibition Assay
Type: biochemical
Conditions: compared with Captopril / other examples, Table II
Protocol: Said assay is described in the literature as follows: B. S. Tsai, M. J. Peach, M. C.
The Angiotensin Converting Enzyme Inhibition Assay represents a test procedure in which various compounds are tested for their ability to inhibit the conversion of the decapeptide angiotensin I or the tripeptide hippuryl-histidyl-leucine to its cleavage product, the dipeptide histidyl-leucine. This dipeptide is detected via its fluorescent condensation product with o-phthaladehyde.
For testing the effect of inhibitors on procine plasma angiotensin-converting enzyme, two assays were run in parallel. One contained the substrate (1-2 mM), enzyme (1 mg) and various concentrations (1 nM-10 mM) of an inhibitor, the other contained only the substrate and enzyme. The assays were conducted in sodium phosphate buffer, pH 7.6, under the conditions described in the article by Tsai, et al., supra.
For `CC(CC(=O)C(Cc1ccccc1)NC(=O)c1ccccc1)C(=O)N1CCC[C@H]1C(=O)O` (stereo partly drawn) [Example XIII, 5-Benzamido-4-oxo-2-methyl-6-phenylhexanoyl-L-proline], the “effectiveness in angiotensin converting enzyme inhibition assay (in words)” value was “most effective compound”.

Same assay, conditions: sodium phosphate buffer, pH 7.6; substrate 1-2 mM; inhibitor 1 nM-10 mM
`O=C(NC(Cc1ccc(OCc2ccccc2)cc1)C(=O)CCC(=O)N1CCC[C@H]1C(=O)O)c1ccccc1` (stereo partly drawn) [Example IX, 5-Benzamido-4-oxo-6-p-benzyloxyphenylhexanoyl-L-proline] gave an IC50 of 10 nM.
Work on `O=C(NC(Cc1ccc(O)cc1)C(=O)CCC(=O)N1CCC[C@H]1C(=O)O)c1ccccc1` (stereo partly drawn) [Example X, 5-Benzamido-4-oxo-6-p-hydroxyphenylhexanoyl-L-proline] yielded an IC50 of 4.7 nM.
For `O=C(CCC(=O)N1CCC[C@H]1C(=O)O)C(Cc1ccccc1)NC(=O)C1CCCO1` (stereo partly drawn) [VI, 5-(2-Tetrahydrofuroylamino)-4-oxo-6-phenylhexanoyl-L-proline], the IC50 was 20 nM.
`O=C(NC(Cc1ccccc1)C(=O)CCC(=O)N1CCC[C@H]1C(=O)O)OCc1ccccc1` (stereo partly drawn) [Example III, 5-Benzyloxycarbonylamino-4-oxo-6-phenylhexanoyl-L-proline] showed an IC50 of 240 nM.
`CCCCOC(=O)NC(Cc1ccccc1)C(=O)CCC(=O)N1CCC[C@H]1C(=O)O` (stereo partly drawn) [Example XV, 5-n-Butyloxycarbonylamino-4-oxo-6-phenylhexanoyl-L-proline] gave an IC50 of 210 nM.
Compound `CC(C)C(CC(=O)C(Cc1ccccc1)NC(=O)c1ccccc1)C(=O)N1CCC[C@H]1C(=O)O` (stereo partly drawn) [XIV, 5-Benzamido-4-oxo-2-isopropyl-6-phenylhexanoyl-L-proline] has an IC50 of 230 nM.
In the case of `Cc1ccccc1C(=O)NC(Cc1ccccc1)C(=O)CCC(=O)N1CCC[C@H]1C(=O)O` (stereo partly drawn) [VII, 5-O-Toluoylamino-4-oxo-6-phenylhexanoyl-L-proline], the IC50 is reported as 46 nM.
In the case of `CCCCCCCC(=O)NC(Cc1ccccc1)C(=O)CCC(=O)N1CCC[C@H]1C(=O)O` (stereo partly drawn) [XX, 5-n-Octanoylamino-4-oxo-6-phenylhexanoyl-L-proline], the IC50 is reported as 650 nM.
Work on `CCCCCC(=O)NC(Cc1ccccc1)C(=O)CCC(=O)N1CCC[C@H]1C(=O)O` (stereo partly drawn) [Example XIX, 5-n-Hexanoylamino-4-oxo-6-phenylhexanoyl-L-proline] yielded an IC50 of 47 nM.
Work on `COc1ccc(CC(NC(=O)c2ccccc2)C(=O)CCC(=O)N2CCC[C@H]2C(=O)O)cc1OC` (stereo partly drawn) [VIII, 5-Benzamido-4-oxo-6-(3,4-dimethoxyphenyl)hexanoyl-L-proline] yielded an IC50 of 1.4 nM.
With `O=C(NC(Cc1ccccc1)C(=O)CCC(=O)N1CCC[C@H]1C(=O)O)c1ccco1` (stereo partly drawn) [Example V, 5-(2-Furoylamino)-4-oxo-6-phenylhexanoyl-L-proline] the IC50 was 1.4 nM.
In the case of `CCCCCCCCCC(=O)NC(Cc1ccccc1)C(=O)CCC(=O)N1CCC[C@H]1C(=O)O` (stereo partly drawn) [XXI, 5-n-Decanoylamino-4-oxo-6-phenylhexanoyl-L-proline], the IC50 is reported as 6500 nM.
`O=C(NC(Cc1ccccc1)C(=O)CCC(=O)N1CCC[C@H]1C(=O)O)c1ccncc1` (stereo partly drawn) [IV, 5-(4-Pyridyl)carbonylamino-4-oxo-6-phenylhexanoyl-L-proline] showed an IC50 of 20 nM.
For `CCCCOC(=O)NC(Cc1ccccc1)C(=O)CC(C)C(=O)N1CCC[C@H]1C(=O)O` (stereo partly drawn) [Example XVII, 5-n-Butyloxycarbonylamino-4-oxo-2-methyl-6-phenylhexanoyl-L-proline], the IC50 was 33 nM.
Work on `CC(=O)NC(Cc1ccccc1)C(=O)CCC(=O)N1CCC[C@H]1C(=O)O` (stereo partly drawn) [XVIII, 5-Acetylamino-4-oxo-6-phenylhexanoyl-L-proline] yielded an IC50 of 330 nM.
For `O=C(NC(Cc1cccnc1)C(=O)CCC(=O)N1CCC[C@H]1C(=O)O)c1ccccc1` (stereo partly drawn) [Example XI, 5-Benzamido-4-oxo-6-(3-pyridyl)hexanoyl-L-proline], the IC50 was 5.7 nM.

Tested on: angiotensin converting enzyme
Assay: not given
Conditions: literature; cited from earlier work
For `C[C@H](NC(=O)[C@@H](N)Cc1ccccc1)C(=O)N1CCC[C@H]1C(=O)O` [phenylalanyl-alanyl-proline] (H-Phe-Ala-Pro-OH), the “inhibition of the converting enzyme (in words)” value is given as “substantial degree of activity”.
